Biological target: T1, PARP-1 enzyme (Homo sapiens, UniProt P09874)
T1 construct: made in house
Assay: In vitro Scintillation Proximity Assay (SPA) for PARP-1 inhibitory activity
Format: biochemical
Settings: nicked DNA activated PARP-1, [3H]-NAD+, biotinylated histones; read-out: In vitro SPA pIC50 (converted)
Method: Compounds of the present invention were tested in an in vitro assay based on SPA technology (proprietary to Amersham Pharmacia Biotech).
In principle, the assay relies upon the well established SPA technology for the detection of poly(ADP-ribosyl)ation of biotinylated target proteins, i.e histones. This ribosylation is induced using nicked DNA activated PARP-1 enzyme and [^3H]-nicotinamide adenine dinucleotide ([^3H]-NAD^+) as ADP-ribosyl donor.
As inducer of PARP-1 enzyme activity, nicked DNA was prepared. For this, 25 mg of DNA (supplier: Sigma) was dissolved in 25 ml DNAse buffer (10 mM Tris-HCl, pH 7.4; 0.5 mg/ml Bovine Serum Albumine (BSA); 5 mM MgCl2.6H2O and 1 mM KCl) to which 50 μl DNAse solution (1 mg/ml in 0.15 M NaCl) was added. After an incubation of 90 min. at 37° C., the reaction was terminated by adding 1.45 g NaCl, followed by a further incubation at 58° C. for 15 min. The reaction mixture was cooled on ice and dialysed at 4° C. for respectively 1.5 and 2 hours against 1.5 l of 0.2 M KCl, and twice against 1.5 l of 0.01 M KCl for 1.5 and 2 h respectively. The mixture was aliquoted and stored at −20° C. Histones (1 mg/ml, type II-A, supplier: Sigma) were biotinylated using the biotinylation kit of Amersham and stored aliquoted at −20° C. A stock solution of 100 mg/ml SPA poly(vinyl toluene) (PVT) beads (supplier: Amersham) was made in PBS. A stock solution of [^3]H-NAD^+ was made by adding 120 μl of [^3H]-NAD^+ (0.1 mCi/ml, supplier: NEN) to 6 ml incubation buffer (50 mM Tris/HCl, pH 8; 0.2 mM DTT; 4 mM MgCl2). A solution of 4 mM NAD^+ (supplier: Roche) was made in incubation buffer (from a 100 mM stock solution in water stored at −20° C.). The PARP-1 enzyme was produced using art known techniques, i.e. cloning and expression of the protein starting from human liver cDNA. Information concerning the used protein sequence of the PARP-1 enzyme including literature references can be found in the Swiss-Prot database under primary accession number P09874. Biotinylated histones and PVT-SPA beads were mixed and pre-incubated for 30 min. at room temperature. PARP-1 enzyme (concentration was lot dependent) was mixed with the nicked DNA and the mixture was pre-incubated for 30 min. at 4° C. Equal parts of this histones/PVT-SPA beads solution and PARP-1 enzyme/DNA solution were mixed and 75 μl of this mixture together with 1 μl of compound in DMSO and 25 μl of [^3H]-NAD^+ was added per well into a 96-well microtiterplate. The final concentrations in the incubation mixture were 2 μg/ml for the biotinylated histones, 2 mg/ml for the PVT-SPA beads, 2 μg/ml for the nicked DNA and between 5-10 μg/ml for the PARP-1 enzyme. After incubation of the mixture for 15 min. at room temperature, the reaction was terminated by adding 100 μl of 4 mM NAD^+ in incubation buffer (final concentration 2 mM) and plates were mixed.
The beads were allowed to sediment for at least 15 min. and plates transferred to a TopCountNXT™ (Packard) for scintillation counting, values were expressed as counts per minute (cpm). For each experiment, controls (containing PARP-1 enzyme and DMSO without compound), a blank incubation (containing DMSO but no PARP-1 enzyme or compound) and samples (containing PARP-1 enzyme and compound dissolved in DMSO) were run in parallel. All compounds tested were dissolved and eventually further diluted in DMSO. In first instance, compounds were tested at a concentration of 10^−5 M or 10^−6M. […] In each test, the blank value was subtracted from both the control and the sample values. The control sample represented maximal PARP-1 enzyme activity. For each sample, the amount of cpm was expressed as a percentage of the mean cpm value of the controls. When appropriate, IC50-values (concentration of the drug, needed to reduce the PARP-1 enzyme activity to 50% of the control) were computed using linear interpolation between the experimental points just above and below the 50% level. […]

T1 sequence (P09874 whole entry): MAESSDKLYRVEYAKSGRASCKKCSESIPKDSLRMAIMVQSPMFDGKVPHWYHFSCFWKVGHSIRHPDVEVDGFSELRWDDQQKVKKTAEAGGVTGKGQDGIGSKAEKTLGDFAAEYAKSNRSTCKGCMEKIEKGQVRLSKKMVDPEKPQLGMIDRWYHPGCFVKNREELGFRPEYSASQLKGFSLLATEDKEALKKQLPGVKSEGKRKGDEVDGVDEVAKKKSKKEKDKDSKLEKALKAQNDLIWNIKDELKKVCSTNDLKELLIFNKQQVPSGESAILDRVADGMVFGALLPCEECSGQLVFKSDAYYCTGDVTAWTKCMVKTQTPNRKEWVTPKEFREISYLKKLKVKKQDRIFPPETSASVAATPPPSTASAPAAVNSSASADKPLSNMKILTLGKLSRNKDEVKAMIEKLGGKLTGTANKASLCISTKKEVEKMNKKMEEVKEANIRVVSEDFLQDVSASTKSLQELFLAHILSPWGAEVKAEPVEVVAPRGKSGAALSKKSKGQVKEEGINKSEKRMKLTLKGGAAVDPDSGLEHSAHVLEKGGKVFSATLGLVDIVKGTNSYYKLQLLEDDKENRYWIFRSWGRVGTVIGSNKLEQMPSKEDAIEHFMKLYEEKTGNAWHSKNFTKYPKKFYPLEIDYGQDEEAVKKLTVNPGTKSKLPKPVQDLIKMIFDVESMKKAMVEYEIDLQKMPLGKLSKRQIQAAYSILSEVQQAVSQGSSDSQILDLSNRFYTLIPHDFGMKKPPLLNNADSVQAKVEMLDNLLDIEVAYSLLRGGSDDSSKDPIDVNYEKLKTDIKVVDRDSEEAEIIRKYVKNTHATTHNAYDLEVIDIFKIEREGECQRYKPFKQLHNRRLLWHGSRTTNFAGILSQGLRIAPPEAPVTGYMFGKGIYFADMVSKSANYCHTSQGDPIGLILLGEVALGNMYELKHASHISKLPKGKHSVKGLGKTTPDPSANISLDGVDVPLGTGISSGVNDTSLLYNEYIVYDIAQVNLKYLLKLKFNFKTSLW

IC50 | SMILES
31 nM | O=CNC(c1cccc(C(F)(F)F)c1)c1ccc2[nH]c(=O)c3ccccc3c2c1 (centres unmarked) [Compound 97]
54.6 nM | CCc1cc2cc(C(NCCCN3CCCCC3)c3ccc4c(c3)OCCO4)ccc2[nH]c1=O (centres unmarked) [Compound 52]
553 nM | CCc1nc2ccc(CC(c3ccc(Cl)cc3)N3CCC(C(N)=O)CC3)cc2[nH]c1=O (centres unmarked) [Compound 120]
137 nM | CCc1cc2cc(/C(=C\CN(C)C)c3ccc4c(c3)OCCO4)ccc2[nH]c1=O [Compound 136]
23.7 nM | CCc1cc2cc(C(c3ccc4c(c3)OCCO4)N3CCN(CCN4CCCCC4)CC3)ccc2[nH]c1=O (centres unmarked) [Compound 40]
582 nM | CCc1nc2cc(C(c3ccccc3)N3CCC(NCCOC)CC3)ccc2[nH]c1=O (centres unmarked) [Compound 58]
152 nM | CCc1cc2cc(C(NC3CCCN(Cc4ccccc4)C3)c3ccc4c(c3)OCCO4)ccc2[nH]c1=O (centres unmarked) [Compound 53]
411 nM | CCc1cc2cc(C(c3cccc4ccccc34)N3CCC(NCCOC)CC3)ccc2[nH]c1=O (centres unmarked) [Compound 76]
121 nM | CCc1cc2cc(C(=C3CCN(CCCn4c(=O)[nH]c5ccccc54)CC3)c3ccc4c(c3)OCCO4)ccc2[nH]c1=O [Compound 141]
198 nM | CCc1nc2cc(CC(c3ccccc3)n3ccnc3)ccc2[nH]c1=O (centres unmarked) [Compound 119]
292 nM | CCc1cc2cc(C(c3ccc(N(C)C)cc3)N3CCC(NCCOC)CC3)ccc2[nH]c1=O (centres unmarked) [Compound 65]
417 nM | CCc1cc2cc(C(c3ccc(Cl)cc3Cl)N3CCC(NCCOC)CC3)ccc2[nH]c1=O (centres unmarked) [Compound 66]
532 nM | CCc1cc2cc(C(c3ccc(C)cc3C)N3CCC(NCCOC)CC3)ccc2[nH]c1=O (centres unmarked) [Compound 64]
498 nM | CCc1cc2cc(C(c3ccc(Cl)c(Cl)c3)N3CCC(NCCOC)CC3)ccc2[nH]c1=O (centres unmarked) [Compound 83]
406 nM | CCc1nc2cc(CC(O)c3ccccc3)ccc2[nH]c1=O (centres unmarked) [Compound 108]
74.6 nM | O=c1[nH]c2ccc(C(NCCCN3CCCCC3)c3cccc(C(F)(F)F)c3)cc2c2ccccc12 (centres unmarked) [Compound 32]
188 nM | CCc1cc2cc(/C(=C\CN3CCCCC3)c3ccc4c(c3)OCCO4)ccc2[nH]c1=O [Compound 130]
276 nM | CCc1cc2cc(C(c3ccc4ccccc4c3)N3CCC(NCCOC)CC3)ccc2[nH]c1=O (centres unmarked) [Compound 61]
830 nM | CCc1nc2cc(CC(c3ccc(Cl)cc3)N3CCC(O)(c4ccccc4)CC3)ccc2[nH]c1=O (centres unmarked) [Compound 121]

IC50 | SMILES
869 nM | CCc1nc2cc(CCC(c3ccc(Cl)cc3)n3ccnc3)ccc2[nH]c1=O (centres unmarked) [Compound 118]
18.4 nM | CCc1cc2cc(C(OCCN(C)C)c3ccc4c(c3)OCCO4)ccc2[nH]c1=O (centres unmarked) [Compound 55]
948 nM | CCc1cc2cc(C(c3ccc4c(c3)OCO4)n3nc(C4CCNCC4)c4ccc(F)cc43)ccc2[nH]c1=O (centres unmarked) [Compound 42]
119 nM | CCc1cc2cc(C(c3ccc4c(c3)OCCO4)C3CC[N+](C/C=C/c4ccccc4)(C/C=C/c4ccccc4)CC3)ccc2[nH]c1=O (centres unmarked) [Compound 15]
211 nM | CCc1cc2cc(C(c3ccccc3Cl)N3CCC(NCCOC)CC3)ccc2[nH]c1=O (centres unmarked) [Compound 74]
177 nM | CCc1cc2cc(C(OCCN(C)C)c3cccc(Cl)c3)ccc2[nH]c1=O (centres unmarked) [Compound 71]
710 nM | CCc1nc2cc(CC(c3ccc(Cl)cc3)N3CCN(C4CCCCC4)CC3)ccc2[nH]c1=O (centres unmarked) [Compound 117]
525 nM | CCc1cc2cc(C(c3cccc(OC(F)(F)F)c3)N3CCC(NCCOC)CC3)ccc2[nH]c1=O (centres unmarked) [Compound 34]
122 nM | CCc1cc2cc(C(c3ccc4c(c3)OCCO4)N3CCN(CC4CCCCC4)CC3)ccc2[nH]c1=O (centres unmarked) [Compound 41]
318 nM | CCc1nc2cc(C(c3ccccc3)N3CCC(=O)CC3)ccc2[nH]c1=O (centres unmarked) [Compound 84]
406 nM | CN(CCCNC(c1cccc(C(F)(F)F)c1)c1ccc2[nH]c(=O)c3ccccc3c2c1)Cc1ccccc1 (centres unmarked) [Compound 49]
339 nM | CCc1cc2cc(C(c3cccc(Cl)c3)N3CCN(C)CC3)ccc2[nH]c1=O (centres unmarked) [Compound 75]
564 nM | CCc1nc2cc(CC(=O)c3ccccc3)ccc2[nH]c1=O [Compound 116]
299 nM | CCc1cc2cc(C(c3ccc(OCCCN(C)C)cc3)N3CCC(NCCOC)CC3)ccc2[nH]c1=O (centres unmarked) [Compound 36]
802 nM | CCc1cc2cc(C(c3ccc(C(F)(F)F)cc3F)N3CCC(NCCOC)CC3)ccc2[nH]c1=O (centres unmarked) [Compound 35]
373 nM | CCc1cc2cc(C(c3ccc(F)cc3F)N3CCC(NCCOC)CC3)ccc2[nH]c1=O (centres unmarked) [Compound 68]
8.43 nM | CCc1cc2cc(C(CCN(C)C)c3ccc4c(c3)OCCO4)ccc2[nH]c1=O (centres unmarked) [Compound 90]
101 nM | CCc1cc2cc(C(c3ccc4c(c3)OCO4)N3CCC(NCCOC)CC3)ccc2[nH]c1=O (centres unmarked) [Compound 54]
511 nM | CCc1nc2cc(C(NCCCN(C)Cc3ccccc3)c3ccccc3)ccc2[nH]c1=O (centres unmarked) [Compound 56]

IC50 | SMILES
63 nM | CCc1cc2cc(/C(=C/CN(C)C)c3ccc4c(c3)OCCO4)ccc2[nH]c1=O [Compound 138]
356 nM | CCc1cc2cc(C(c3ccccc3C)N3CCC(NCCOC)CC3)ccc2[nH]c1=O (centres unmarked) [Compound 82]
92.3 nM | CCc1cc2cc(C(NCCN3CCC(C(=O)c4ccc(F)cc4)CC3)c3ccc4c(c3)OCCO4)ccc2[nH]c1=O (centres unmarked) [Compound 44]
322 nM | CCc1cc2cc(C(=C3CCN(C/C=C/c4ccccc4)CC3)c3ccc4c(c3)OCCO4)ccc2[nH]c1=O [Compound 142]
45.6 nM | O=c1[nH]c2ccc(C(NCCN3CCC(c4n[nH]c5cc(F)ccc45)CC3)c3ccc4c(c3)OCCO4)cc2c2ccccc12 (centres unmarked) [Compound 45]
428 nM | CCc1cc2cc(/C(=C\CN(C)C)c3ccc(Cl)cc3)ccc2[nH]c1=O [Compound 137]
459 nM | CCc1nc2cc(C(NCCCN3CCCCC3)c3ccccc3)ccc2[nH]c1=O (centres unmarked) [Compound 51]
312 nM | CCc1cc2cc(C(c3ccccc3F)N3CCC(NCCOC)CC3)ccc2[nH]c1=O (centres unmarked) [Compound 62]
762 nM | CCc1cc2cc(C(c3ccc(C(F)(F)F)cc3)N3CCC(NCCOC)CC3)ccc2[nH]c1=O (centres unmarked) [Compound 70]
296 nM | CCc1cc2cc(C(c3ccc(Cl)cc3)N3CCN(C)CC3)ccc2[nH]c1=O (centres unmarked) [Compound 60]
57.1 nM | CCc1cc2cc(/C(=C/CN3CCCCC3)c3ccc4c(c3)OCCO4)ccc2[nH]c1=O [Compound 129]
405 nM | CCc1cc2cc(C(c3ccc4c(c3)OCCO4)N3CCC(c4n[nH]c5cc(F)ccc45)CC3)ccc2[nH]c1=O (centres unmarked) [Compound 46]
361 nM | CCc1cc2cc(C(c3ccc(Cl)c(F)c3)N3CCC(NCCOC)CC3)ccc2[nH]c1=O (centres unmarked) [Compound 63]
124 nM | CCc1cc2cc(C(c3c(Cl)cccc3Cl)N3CCC(NCCOC)CC3)ccc2[nH]c1=O (centres unmarked) [Compound 73]
21.2 nM | CCc1cc2cc(C(c3ccc4c(c3)OCCO4)N3CCN(CCN4CCCCCC4)CC3)ccc2[nH]c1=O (centres unmarked) [Compound 43]
217 nM | CCc1cc2cc(C(c3cccc(F)c3)N3CCC(NCCOC)CC3)ccc2[nH]c1=O (centres unmarked) [Compound 59]
33.6 nM | CCc1cc2cc(C(NCCCN(C)Cc3ccccc3)c3ccc4c(c3)OCCO4)ccc2[nH]c1=O (centres unmarked) [Compound 57]
456 nM | CCc1cc2cc(C(c3cc(C(F)(F)F)ccc3Cl)N3CCC(NCCOC)CC3)ccc2[nH]c1=O (centres unmarked) [Compound 69]

Source: patent US8071612B2, “6-alkenyl and 6-phenylalkyl substituted 2-quinolinones and 2-quinoxalinones as poly(ADP-ribose) polymerase inhibitors” (Janssen Pharmaceutica, NV, priority 2004, dated 2011)
